The test system of assay [1] is Puccinia recondita f. sp. tritici. Put plainly: Test B: wheat leaf rust, spray on wheat seedlings, disease control rating. In kind it is in vivo. The following applies: Rate 10 ppm, 100 = 100% disease control, 0 = no disease control relative to the controls; for pest or weed control at 10 ppm: Puccinia recondita, 192 h. The source says:
(§1) General protocol for preparing test suspensions for Tests A-F: the test compounds were first dissolved in acetone in an amount equal to 3% of the final volume and then suspended at the desired concentration (in ppm) in acetone and purified water (50/50 mix by volume) containing 250 ppm of the surfactant PEG400 (polyhydric alcohol esters). The resulting test suspensions were then used in Tests A-F.
The test solution was sprayed to the point of run-off on wheat seedlings. The following day the seedlings were inoculated with a spore suspension of Puccinia recondita f. sp. tritici (the causal agent of wheat leaf rust) and incubated in a saturated atmosphere at 20° C. for 24 h, and then moved to a growth chamber at 20° C. for 7 days, after which time disease ratings were made.
(§2) A rating of 100 indicates 100% disease control and a rating of 0 indicates no disease control (relative to the controls). A dash (-) indicates the compound was not tested.

Assay [2] relates to Phakopsora pachyrhizi. Put plainly: Test D: Asian soybean rust, spray on soybean seedlings, disease control rating. The following applies: Rate 10 ppm, 100 = 100% disease control, 0 = no disease control relative to the controls; for pest or weed control at 10 ppm: Phakopsora pachyrhizi, 216 h. The assay is classed as in vivo.
Source text: as §1
The test solution was sprayed to the point of run-off on soybean seedlings. The following day the seedlings were inoculated with a spore suspension of Phakopsora pachyrhizi (the causal agent of Asian soybean rust) and incubated in a saturated atmosphere at 22° C. for 24 h and then moved to a growth chamber at 22° C. for 8 days, after which time visual disease ratings were made.
as §2

Regarding `COC(=O)NCc1cc(-c2ccn(-c3c(Cl)cc(C4CC4)cc3Cl)n2)ccc1C` [Compound 65, methyl N-[[5-[1-(2,6-dichloro-4-cyclopropylphenyl)-1H-pyrazol-3-yl]-2-methylphenyl]methyl]carbamate], the pest or weed control at 10 ppm was 97% in assay [1] and 100% in assay [2].

As to `COC(=O)NCc1cc(-c2ccn(-c3c(F)cc(C(F)F)cc3F)n2)ccc1C` [Compound 87, methyl N-[[5-[1-[4-(difluoromethyl)-2,6-difluorophenyl]-1H-pyrazol-3-yl]-2-methylphenyl]methyl]carbamate], the pest or weed control at 10 ppm in assay [1] and in assay [2] was 100% each time.

`COC(=O)NCc1cc(-c2cnn(-c3c(F)cc(C(C)=NOC(C)C)cc3F)n2)ccc1C` [Compound 143]: the “Test B disease control rating” value in assay [1] was determined as 74%. Also, the “Test D disease control rating” value in assay [2] came to 100%.

Consider `COC(=O)NCc1cc(-c2ccn(-c3c(F)cc(Br)cc3Cl)n2)ccc1C` [Compound 50], for which the pest or weed control at 10 ppm in assay [1] and in assay [2] was 100% each time.

Turning to “methyl N-[[5-[1-(2,6-difluoro-4-methoxyphenyl)-1H-pyrazol-3-yl]-2-methylphenyl]methyl]carbamate [Compound 33]”, in assay [1], the “Test B disease control rating” value is 99%. Also, the “Test D disease control rating” value in assay [2] is 100%.

`COC(=O)NCc1cc(-c2ccn(-c3c(F)cc(Br)cc3F)n2)ccc1C` [Compound 7, methyl N-[[5-[1-(4-bromo-2,6-difluorophenyl)-1H-pyrazol-3-yl]-2-methylphenyl]methyl]carbamate]: the pest or weed control at 10 ppm in assay [1] and in assay [2] was 100% each time.

Regarding `COC(=O)NCc1cc(-c2ccn(-c3c(Cl)cccc3Br)n2)ccc1C` [Compound 60], the values for the pest or weed control at 10 ppm in assay [1] and in assay [2] were 68% and 100%, respectively.

Regarding `C#Cc1cc(F)c(-n2ccc(-c3ccc(C)c(CNC(=O)OC)c3)n2)c(F)c1` [Compound 53, methyl N-[[5-[1-(4-ethynyl-2,6-difluorophenyl)-1H-pyrazol-3-yl]-2-methylphenyl]methyl]carbamate], the pest or weed control at 10 ppm in assay [1] and in assay [2] was 100% throughout.

In the case of `COC(=O)NCc1cc(-c2ccn(-c3c(F)cc(OCC4CCC4)cc3F)n2)ccc1C` [Compound 31], the “Test B disease control rating” value in assay [1] turned out to be 91%. The “Test D disease control rating” value in assay [2] came out at 0%.

As for `COC(=O)NCc1cc(-c2ccn(-c3c(F)cc(OCC(F)(F)F)cc3F)n2)ccc1C` [Compound 22], the figures for the pest or weed control at 10 ppm in assay [1] and in assay [2] were 99% and 100%, respectively.

For `COC(=O)NCc1cc(-c2ccn(-c3c(F)cc(SC)cc3SC)n2)ccc1C` [Compound 28], the pest or weed control at 10 ppm was 0% in assay [1] and 100% in assay [2].

For `COC(=O)NCc1cc(-c2ccn(-c3c(C)cc(N)cc3C)n2)ccc1C` [Compound 38], the pest or weed control at 10 ppm in assay [1] and in assay [2] was 0% throughout.

For the molecule `COC(=O)NCc1cc(-c2ccn(-c3c(F)cc(F)cc3SC)n2)ccc1C` [Compound 19], the pest or weed control at 10 ppm in assay [1] was found to be 0%; in assay [2] it was 81%.

Take `COC(=O)NCc1cc(-c2ccn(-c3c(F)cc(OC(F)(F)C(F)F)cc3F)n2)ccc1C` [Compound 29]: in assay [1], the “Test B disease control rating” value stood at 100%. In addition, in assay [2], the “Test D disease control rating” value was 100%.

On to `C=CCOc1cc(F)c(-n2ccc(-c3ccc(C)c(CNC(=O)OC)c3)n2)c(F)c1` [Compound 94], for which, in assay [1], the “Test B disease control rating” value came out at 85%. Moreover, the “Test D disease control rating” value in assay [2] was determined as 99%.

`COC(=O)NCc1cc(-c2ccn(-c3c(F)cc(OC(C)=O)cc3F)n2)ccc1C` [Compound 18]: the “Test B disease control rating” value in assay [1] was found to be 41%. Further, the “Test D disease control rating” value in assay [2] is recorded as 65%.

On to `COC(=O)NCc1cc(-c2ccn(-c3c(F)cc(OC4CC(F)(F)C4)cc3F)n2)ccc1C` [Compound 98], for which the “Test B disease control rating” value in assay [1] is on record as 99%. In addition, the “Test D disease control rating” value in assay [2] is given as 100%.

In the case of `COC(=O)NCc1cc(-c2ccn(-c3c(F)cccc3I)n2)ccc1C` [Compound 45], the figures for the pest or weed control at 10 ppm in assay [1] and in assay [2] were 0% and 100%, respectively.

Regarding `COC(=O)NCc1cc(-c2ccn(-c3c(Br)cccc3I)n2)ccc1C` [Compound 52], the results for the pest or weed control at 10 ppm in assay [1] and in assay [2] were 0% and 99%, respectively.

Take `COC(=O)NCc1cc(-c2ccn(-c3c(F)cc(N)cc3F)n2)ccc1C` [Compound 5, methyl N-[[5-[1-(4-amino-2,6-difluorophenyl)-1H-pyrazol-3-yl]-2-methylphenyl]methyl]carbamate]: the pest or weed control at 10 ppm in assay [1] and in assay [2] was 0% each time.

In the case of `COC(=O)NCc1cc(-c2cnn(-c3c(F)cc(Cl)cc3F)n2)ccc1C` [Compound 117, methyl N-[[5-[2-(4-chloro-2,6-difluorophenyl)-2H-1,2,3-triazol-4-yl]-2-methylphenyl]methyl]carbamate], the pest or weed control at 10 ppm in assay [1] and in assay [2] was 100% throughout.

As for `COC(=O)NCc1cc(-c2ccn(-c3c(F)cc(O)cc3F)n2)ccc1C` [Compound 10, methyl N-[[5-[1-(2,6-difluoro-4-hydroxyphenyl)-1H-pyrazol-3-yl]-2-methylphenyl]methyl]carbamate], the pest or weed control at 10 ppm in assay [1] and in assay [2] was 0% throughout.

In the case of `COC(=O)NCc1cc(-c2ccn(-c3c(F)cccc3Cl)n2)ccc1C` [Compound 47], the pest or weed control at 10 ppm in assay [1] was found to be 74%; in assay [2], 100%.

Take `COC(=O)NCc1cc(-c2ccn(-c3c(Cl)cccc3Cl)n2)ccc1C` [Compound 44]: the pest or weed control at 10 ppm in assay [1] worked out at 68%; in assay [2], 100%.

`COC(=O)NCc1cc(-c2ccn(-c3c(F)cc(C(OC)C(C)=O)cc3F)n2)ccc1C` (centres unmarked) [Compound 76]: the “Test B disease control rating” value in assay [1] worked out at 68%. For the same molecule, the “Test D disease control rating” value in assay [2] is listed as 100%.

As to `COC(=O)NCc1cc(-c2ccn(-c3c(F)cc(C(C)(C)F)cc3F)n2)ccc1C` [Compound 97], the “Test B disease control rating” value in assay [1] was found to be 100%. Besides, the “Test D disease control rating” value in assay [2] is on record as 100%.

Regarding `C=CCON=C(C)c1cc(F)c(-n2ccc(-c3ccc(C)c(CNC(=O)OC)c3)n2)c(F)c1` [Compound 85], in assay [1], the “Test B disease control rating” value is listed as 90%. In addition, in assay [2], the “Test D disease control rating” value was 98%.

On to `COC(=O)NCc1cc(-c2ccn(-c3c(Cl)cccc3I)n2)ccc1C` [Compound 59], for which the pest or weed control at 10 ppm in assay [1] was found to be 45%; in assay [2] it was 87%.

`CON=C(C)c1cc(F)c(-n2ccc(-c3ccc(C)c(CNC(=O)OC)c3)n2)c(F)c1` [Compound 83, methyl N-[[5-[1-[2,6-difluoro-4-[1-(methoxyimino)ethyl]phenyl]-1H-pyrazol-3-yl]-2-methylphenyl]methyl]carbamate]: the pest or weed control at 10 ppm in assay [1] and in assay [2] was 100% throughout.

As for `COC(=O)NCc1cc(-c2ccn(-c3c(SC)cc(F)cc3SC)n2)ccc1C` [Compound 20], the pest or weed control at 10 ppm in assay [1] and in assay [2] was 0% throughout.

Consider `COC(=O)NCc1cc(-c2ccn(-c3c(Cl)cc(C(C)C)cc3Cl)n2)ccc1C` [Compound 135], for which the pest or weed control at 10 ppm in assay [1] is 86%; in assay [2], 100%.

A word on the pest or weed control: it is how far the test organism was held down. Low values mean weak suppression, high ones strong suppression.
